Test: Solubility in water of the surfactant
Assay type: physicochemical
Conditions: water at 25° C.
Experimental: As long as the above-described surfactant adhered to a base membrane includes at least a surfactant (A) soluble in water and a surfactant (B) insoluble in water, the above-described surfactant adhered to a base membrane may also include another surfactant (i.e., a surfactant having a solubility in water of 0.1 g based on 100 g of water to 5 g based on 100 g of water.)
(7) Solubility in Water (g Per 100 g of Water)
Aliquots, each of which is 0.01 g of a surfactant, were added one by one to 100 g of water at 25° C. while stirring. The total amount of the surfactant added (g) when the solution changed from clear to opaque was taken as the degree of the solubility in water

Compound | Solubility in water
CCCCCCCC/C=C/CCCCCCCC1=NCCN1CCO [oleyl imidazoline] | ≤ 0.1 g per 100 g of water
polyoxyethylene alkyl ether | ≥ 5 g per 100 g of water
